Reference: US5242945A, “Tetronic and thiotetronic acid derivatives as phospholipase A2 inhibitors” (American Home Products Corporation, priority 1991, dated 1993)

What was measured:
[1] = molecular target: T1, human synovial fluid PLA2 (Homo sapiens, UniProt P14555); assay: in vitro isolated phospholipase A2 assay, human synovial fluid PLA2; type: biochemical; conditions: for IC50: Table IV, read-out: IC50 HSF (human synovial fluid); for inhibition at 10 µM: + values given without explanation, read-out: % Inhibition HSF (human synovial fluid)
T1 construct: Purified human synovial fluid; from tissue; host or cells: human synovial fluid
T1 sequence (P14555 21-144): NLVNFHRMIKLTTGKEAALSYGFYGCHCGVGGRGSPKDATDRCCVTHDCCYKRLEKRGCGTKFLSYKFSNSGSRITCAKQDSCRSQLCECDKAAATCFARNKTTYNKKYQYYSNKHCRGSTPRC
Method in brief: (§1)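 PLA2 from semipurified human platelet acid extract or purified human synovial fluid, preincubated 30 min at room temperature with compound. ³H-arachidonate-labelled E. coli substrate then added in Tris-HCl pH 7.5, with enzyme giving about 12% hydrolysis. Reaction ran 10 min at 37° C; released arachidonic acid recovered on NH2 columns and measured by β-counting.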

human platelet PLA2 = molecular target: T2, human platelet PLA2 (Homo sapiens, UniProt P14555); assay: in vitro isolated phospholipase A2 assay, human platelet PLA2; type: biochemical; conditions: for inhibition at 10 µM: + values given without explanation, read-out: % Inhibition HP (human platelet); for IC50: Table IV, read-out: IC50 HP (human platelet)
T2 construct: platelet acid extract PLA2; from tissue; host or cells: human platelets, semipurified acid extract
T2 sequence (P14555 21-144): T1 sequence (P14555 21-144)
Method in brief: as §1

[2] = tested on: LTB4 biosynthesis in purified human neutrophils; assay: LTB4 biosynthesis in human polymorphonuclear neutrophils (in vitro phospholipase A2 assay); type: cell-based; conditions: Neutrophil, human PMN
Procedure: (§2) The compounds of the invention are tested in an in vitro phospholipase A2 assay to determine the ability of the compounds to inhibit the biosynthesis of platelet-activating factor and LTB4 in purified human neutrophils.
(§3) A leukocyte enriched blood sample obtained from a healthy donor is procured by leukophoresis using a Haemonetics model 30+ blood processor (Biological Specialties, Inc., Lansdale, Penn.). The top "platelet-rich" layer is removed after a low speed spin (35 xg, 15 min, 25° C.) of the sample. The remaining cell suspension is centrifuged (400 xg, 10 min, 25° C.) to sediment the remaining cells. The supernatant is discarded and the cell pellet resuspended in 120 ml HBSS (without Ca^++ /Mg^++). The cell suspension is subjected to ficoll-hypaque sedimentation (Histopaque 1077, 400 xg, 30 min, 25° C.). Contaminating erythrocytes are lysed by hypotonic shock (1 min). The cells are then washed once with 40 ml of HBSS and resuspended with HBSS (without Ca^++ /Mg^++) to a concentration of 2.5×10^7 cells/ml for further use. Greater than 95% purity is obtained, as assessed by microscopic examination.
(§4) One ml of human PMN (2.5×10^7 cells/ml) is incubated with vehicle or drugs (10 μl) for 10 minutes at 30° C. After preincubation, an equal volume of HBSS (1 ml) containing 2.4 mM CaCl2, 6 μM calcium ionophore A23187 and 50 μCi [^3 H]-acetate is then incubated at 30° C. for 15 minutes. An aliquot (100 μl) of the reaction mixture is taken out and mixed with 900 μl of 15% ethanol. LTB4 is extracted by using solid phase extraction on reverse phase C18 columns to remove excess [^3 H]-acetate and PAD. The C18 column is prewashed once with 2 ml of ethanol and water. The sample aliquot is acidified with 0.1N HCl to pH 3 before applying to the column. The column is then washed with 2 ml of water followed by 2 ml of 15% ethanol and 2 ml of petroleum ether to remove excess labeled acetate. The sample is eluted with 2 ml of ethyl acetate. The collected samples are dried with nitrogen and resuspended in 0.5 ml RIA buffer. The quantity of LTB4 in the sample is obtained from RIA determination. For PAF determination, the reaction is terminated by addition of 5 ml chloroform:methanol:acetic acid (2:1:0.04, v/v/v). [^3 H]-PAF is obtained by Bligh and Dyer extraction. The chloroform phase is removed and dried under nitrogen. The residue is redissolved in 75 μl of chloroform:methanol (80:20, v/v). [^3 H]-PAF is resolved from other phospholipids by TLC on RPC18 plates with a solvent system of chloroform:methanol:water (2:3:1, v/v/v) and is quantitated using a Berthold automated TLC linear analyzer.
(§5) Data presented are the mean +/- s.d. of the values relative to control A23187 stimulated cells for each experiment assayed in triplicate. Percent inhibition when used is calculated as:
(§6) % Inhibition=100-[(x.div.Control)×100].
(§7) Dose response analysis is performed by non-linear regression analysis for curve fitting and IC50 determination.

[3] = tested on: platelet-activating factor (PAF) biosynthesis in human polymorphonuclear neutrophils (PMN); assay: platelet-activating factor biosynthesis in human polymorphonuclear neutrophils (in vitro phospholipase A2 assay); type: cell-based; conditions: Polymorphonuclear neutrophil, human PMN
Procedure: as §2, §3, §4, §5, §6, §7

Structure (SMILES)	inhibition at 10 µM [1] [%]	inhibition at 10 µM (human platelet PLA2) [%]	IC50 (human platelet PLA2) [µM]	IC50 [1] [µM]	inhibition at 10 µM [2] [%]	inhibition at 25 µM [2] [%]	inhibition at 10 µM [3] [%]	inhibition at 25 µM [3] [%]	inhibition at 50 µM [3] [%]	inhibition at 50 µM [2] [%]
CCCCCCCCCC(=O)C1=C(O)COC1=O [Example 1, 4-Hydroxy-3-(1-oxodecyl)-2(5H)-furanone]	35.1	14.9	–	10.8	37	46	13	32	68	–
CCCCCCCC/C=C\CCCCCCCC(=O)C1=C(O)COC1=O [Example 9, (Z)-4-Hydroxy-3-(1-oxo-9-octadecenyl)-2(5H)-furanone]	97.3	18.5	–	1.1	–	–	–	–	56	100
CCCCC/C=C\C/C=C\CCCCCCCC(=O)C1=C(O)COC1=O [Example 14, (Z,Z)-4-Hydroxy-3-(1-oxo-9,12-octadecadienyl)-2(5H)-furanone]	95	44	1.7	0.48	30	-5	16	19	64	–
CCCCCCCCCCC/C=C\CCCCC(=O)C1=C(O)COC1=O [Example 18, (Z)-4-Hydroxy-3-(1-oxo-6-octadecenyl)-2(5H)-furanone]	9	46	–	–	–	83	–	53	47	–
CCCCC/C=C\C/C=C\C/C=C\CCCCC(=O)C1=C(O)COC1=O [Example 20, (Z,Z,Z)-4-Hydroxy-3-(1-oxo-6,9,12-octadecatrienyl)-2(5H)-furanone]	81	62	–	–	–	–	–	–	83	95
CCCC/C=C\CCCCCCCC(=O)C1=C(O)COC1=O [Example 25, 4-Hydroxy-3-((Z)-1-oxo-9-tetradecenyl)-2(5H)-furanone]	28.8	58.3	26.7	33.4	74	–	–	–	47	97
CCCCC/C=C\C/C=C\C/C=C\CCCCC(=O)C1=C(O)CSC1=O [Example 50, 4-Hydroxy-3-[(Z,Z,Z)-1-oxo-6,9,12-octadecatrienyl]-2(5H)-thiophenone]	55.9	14.1	–	–	–	100	42	–	–	–

More lines, main results first:

inhibition at 10 µM [1] [%]	inhibition at 10 µM (human platelet PLA2) [%]	IC50 (human platelet PLA2) [µM]	Structure (SMILES)	IC50 [1] [µM]	inhibition at 10 µM [2] [%]	inhibition at 25 µM [2] [%]	inhibition at 10 µM [3] [%]	inhibition at 25 µM [3] [%]	inhibition at 50 µM [3] [%]	inhibition at 50 µM [2] [%]
77.5	30	–	CC/C=C\C/C=C\C/C=C\CCCCCCCC(=O)C1=C(O)COC1=O [Example 15, (Z,Z,Z)-4-Hydroxy-3-(1-oxo-9,12,15-octadecatrienyl)-2(5H)-furanone]	–	–	–	–	–	21	68
89.8	71	13.1	CCCCCC1CC1CC1CC1CCCCCCCC(=O)C1=C(O)COC1=O (stereo not drawn) [Example 22, 4-Hydroxy-3-[1-oxo-8-[2-[(2-pentylcyclopropyl)methyl]cyclopropyl]octyl]-2(5H)-furanone]	2.5	93	91	24	49	67	–
28.4	68.6	7.5	O=C(CCCCCCC/C=C\c1ccc(Cl)cc1)C1=C(O)COC1=O [Example 35, 3-[(Z)-10-(4-chlorophenyl)-1-oxo-9-decenyl]-4-hydroxy-2(5H)-furanone]	16	81.6	–	–	–	5	98.5
72	16.4	–	CCCCC/C=C\C/C=C\CCCCCCCC(=O)C1=C(O)CSC1=O [Example 46, 4-Hydroxy-3[(Z,Z)-1-oxo-9,12-octadecadienyl]-2(5H)-thiophenone]	–	–	–	–	7	50	39
34.8	13.8	–	CCCCCCCC/C=C\CCCCCCCC(=O)C1=C(O)CSC1=O [Example 47, 4-Hydroxy-3-[(Z)-1-oxo-9-octadecenyl]-2(5H)-thiophenone]	–	–	–	–	–	35	47
50.9	1.1	–	CCCC/C=C\CCCCCCCC(=O)C1=C(O)CSC1=O [Example 48, 4-Hydroxy-3-[(Z)-1-oxo-9-tetra-decenyl]-2(5H)-thiophenone]	–	–	86	–	76	–	–
29.4	15.2	–	CCCCCCCCCCC/C=C\CCCCC(=O)C1=C(O)CSC1=O [Example 51, 4-Hydroxy-3-[(Z)-1-oxo-6-octadecenyl]-2(5H)-thiophenone]	–	–	–	–	–	70	–
